Measurements as given in patent US20210163357A1, “Composition comprising at least one microorganism and use thereof” (Evonik Operations GmbH, priority 2018, published 2021).

What was measured:
Format in all cases: cell-based
[1] = system: Bacillus pseudofirmus (DSM 8715); test: Compatibility of microorganisms with hydrophobizing agent and shrinkage reducer, liquid culture, turbidity; conditions: WS405 5, 20 or 30 g/L; neopentyl glycol 0.7, 7 or 14 g/L; 4 days, 30° C.
Method: (§1) The strains Bacillus subtilis (DSM 10) and Bacillus pseudofirmus (DSM 8715) were investigated for compatibility with hydrophobizing agents and shrinkage reducers.
(§2) A mixture of 3 g of meat extract, 5 g of peptone from casein and 1000 mL of distilled water adjusted to pH 7 using HCl/NaOH for Bacillus subtilis (DSM 10) and adjusted to pH 7 using Na sesquicarbonate for Bacillus pseudofirmus (DSM 8715) was used as the medium.
(§3) A pre-culture was initially produced for each of the two strains: To this end, an inoculation dose of the spores was in each case placed into a culture tube with 8 mL of the respective medium and left overnight in a laboratory shaker at 30° C. and 200 revolutions per minute. Furthermore, aqueous stock solutions respectively having a concentration of Protectosil® WS405 (hydrophobizing agent) of 500 g/L and a concentration of neopentyl glycol (shrinkage reducer) of 280 g/L were produced.
(§4) For the main cultures two 6-well spot plates were each filled with 8 mL of medium. Then, 10 μL of the first pre-culture were added to each well of the first plate and 10 μL of the second pre-culture were added to each well of the second plate. […]

[2] = system: Bacillus subtilis (DSM 10); test: as above; conditions: WS405 5, 20 or 30 g/L; neopentyl glycol 0.7, 7 or 14 g/L; 4 days, 30° C.
Method: as §1, §2, §3, §4

[3] = system: Bacillus subtilis DSM 32315; test: Compatibility of spores with additives on agar plates; conditions: neopentyl glycol 7 g/L, Protectosil WS405 20 g/L
Method: For spores of the strain Bacillus subtilis DSM 32315 compatibility with neopentyl glycol (7 g/L) and Protectosil® WS405 (20 g/L) was investigated on agar plates. A mixture of 3 g of meat extract, 5 g of peptone from casein and 1000 mL of distilled water adjusted to pH 7 using HCl/NaOH was used as medium.

CC(C)(CO)CO [neopentyl glycol]
growth of microorganism in presence of additive (turbidity) [1]: growth of neither organism was impaired | growth of microorganism in presence of additive (turbidity) [2]: growth of neither organism was impaired | formation of colonies in presence of additive [3]: Formation of colonies was observed in all cases
